US9387231B2, “Compositions comprising a Brd4 antagonist and methods for the treatment of HIV” (THE CHILDREN'S HOSPITAL OF PHILADELPHIA, priority 2011, dated 2016)

Experiments:
Assay type in all cases: cell-based
HIV LTR = test: Reactivation of the HIV LTR in latently infected J-Lat clones (GFP by flow cytometry); conditions: J-Lat clones, TNFα 20 ng/ml or PHA 1.5 μg/ml, 16 hours
Description: (§1) GFP expression was measured by flow cytometry. FIGS. 3B and 3C shown the percentage of cells positive for GFP (FIG. 3B) and the mean MFI of GFP (FIG. 3C) in latently infected cell lines, J-Lat clones 82, A72, A7, A2, and A1, at 16 hours after TNFα or PHA was added in the cultures in the presence of JQ1(+) or JQ1(−). […] GFP expression in cells was measured by flow cytometry and is indicated as percent of GFP+ cells in gated live cell populations. An average of 5 experiments is shown. * p<0.05, ** p<0.01, *** p<0.001. […] Average of 3 experiments is shown. * p<0.05. For FIG. 3F, J-Lat A2 and A72 cells were reactivated with TNFα (20 ng/ml) or HIV Tat protein (50 μg/ml) in the presence of JQ1(+) or JQ1(−) for 16-18 hours, and GFP expression in cells was measured by flow cytometry. One representative experiment is shown. In each dot plot, non-underlined numbers indicate percentage of GFP+ cells and underlined numbers indicate mean fluorescence of GFP (MFI).
(§2) Next, the effect of JQ1 on activation of the HIV LTR was tested using a latently infected Jurkat-derived cell clone, J-Lat clone A2. GFP expression in J-Lat clone A2 is induced upon reactivation with tumor necrosis factor-alpha (TNFα) or phytohaemagglutinin (PHA).
To further study the mechanism of how JQ1 drives reactivation of HIV latency, HIV latently infected T-cell lines—J-Lat clones A1, A2, A7, and A72—were utilized. The effect of JQ1(+) on reactivation of HIV latency in these cell lines were confirmed. TNFα (20 ng/ml) or PHA (1.5 μg/ml) was added to cultures of J-Lat clones in the presence of 1 μM JQ1(+) or JQ1(−). After 16 hours, expression of GFP was measured by flow cytometry. […] In the presence of HIV Tat, BET antagonism enhances Tat-driven transcription of the HIV LTR in J-Lat clones A2 and A72 (FIG. 3F; underlined numbers indicate mean GFP fluorescence, non-underlined numbers indicate percent of GFP+ cells). […] Displacement of Brd4 from chromatin by JQ1(+) may cause conformational change in the chromatin, exposing NF-κb binding sites, leading to increased HIV transcription and reactivation of latency.

HIV-1 NL43 = test: Viral integration in primary resting CD4 T-cells by Alu-PCR; conditions: NL43, 1 μM, T48 h
Description: To determine if JQ1(+) affects viral integration in primary resting CD4 T-cells, the cells were purified and infected with HIV-1 NL43 or mock control. The infected cells were then cultured in the presence of 1 μM of JQ1(+) or JQ1(−) for 48 hours. Cell pellets were collected at 0 hours and 48 hours after infection. DNA was isolated and the viral integration in resting CD4 T-cells was measured by Alu-PCR.

HIV-1 LTR promoter = test: Activation of the HIV LTR in CEMss LTR-GFP reporter cells (GFP by flow cytometry); conditions: CEMss LTR-GFP cells, 8 μg/ml HIV-1 Tat alone
Description: CEMss LTR-GFP cells were infected with NL43 and cultured in the presence of the BET antagonists JQ1(+) (1 μM) or the control enantiomer JQ1(−). GFP expression in cells was examined by flow cytometry. A representative of three experiments is shown. FIG. 2B provides a graph showing GFP expression in cells when cultured with different amounts of JQ1, as determined by flow cytometry. 0.25 μM of JQ1(+) was sufficient to dramatically increase the expression of GFP in NL43 infected CEMss LTR-GFP cells. FIGS. 2C and 2D show percentage of GFP expression (FIG. 2C) and mean fluorescence of GFP (MFI; FIG. 2D) in CEMss LTR-GFP cells cultured in the presence of JQ1(+) or JQ1(−) (1 μM), and different amount of HIV-1 Tat. FIG. 2E provides dot plots of CEMss LTR-GFP cells were cultured with increasing amounts of HIV Tat (0, 8, 16 or 32 μg/ml) in the presence of JQ1(+) or JQ1(−) (1 μM) for 1 day. Non-underlined numbers indicate percentage of GFP and underlined numbers indicate mean fluorescence of GFP (MFI).
as §1
BET antagonists also drive activation of the HIV LTR. Specifically, the effects of JQ1 on transcription from the HIV LTR were tested. CEMss LTR-GFP cells (a reporter cell line stably transfected with GFP under the control of the HIV-1 LTR promoter) were infected with NL43 and cultured in the presence of BET antagonists or controls. GFP expression was measured at days 0, 1, 2, 3, and 6 post-infection. GFP expression was higher in the presence of the BET inhibitor (JQ1) compared to controls (FIG. 2A). Further, by varying the amount of JQ1, it was determined that 0.25 μM of JQ1(+) was sufficient to dramatically increase Tat-driven HIV-1 transcription (FIG. 2B). CEMss LTR-GFP cells were also cultured in the presence of JQ1(+) or JQ1(−) (1 μM) and different amount of HIV-1 Tat (0-32 μg/ml). […] FIG. 2E provides dot plots of the experiments.
as §2

TNFα was tested, and the “GFP expression (reactivation of latently infected cells)” value (HIV LTR) was “induced GFP expression”.

In the case of `Cc1sc2c(c1C)C(c1ccc(Cl)cc1)=N[C@@H](CC(=O)OC(C)(C)C)c1nnc(C)n1-2` [JQ1(−)], the provirus/cell (HIV-1 NL43; Exp. 1, primary resting CD4 T-cells) is reported as 0.527 ± 0.064 provirus/cell and the provirus/cell (HIV-1 NL43; Exp. 2, primary resting CD4 T-cells) is reported as 0.400 ± 0.0009 provirus/cell.

B1: HIV-1 Tat: HIV Tat protein added to reporter cell cultures (protein, UniProt P04608 1-86, looked up)
Protein Tat: MEPVDPRLEPWKHPGSQPKTACTNCYCKKCCFHCQVCFITKALGISYGRKKRRQRRRAHQNSQTHQASLSKQPTSQPRGDPTGPKE
For B1, the “Expression of GFP (percentage)” value (HIV-1 LTR promoter) was “activated”.
